Assay results published in US8741940B2, “Microbicidal composition” (Rohm and Haas Company, priority 2005, dated 2014).
Where a name gives a salt, the structure may show the parent alone. Read-outs that look alike come from different tables or passages of the source.

Assays:
Assay type in all cases: cell-based
Design in all cases: key to SI (synergy index): SI = Qa/QA + Qb/QB; >1 antagonism, lower SI = greater synergy
[1] = test system: Escherichia coli (E. coli—ATCC #8739); assay: Synergy test, microtiter plate high resolution MIC assay, bacterium in M9GY medium; details: for MIC: Escherichia coli, read-out: Qb (concentration of second component producing the end point, MIC)
Procedure: (§1) When the sum of Qa/QA and Qb/QB is greater than one, antagonism is indicated. […] The lower the SI, the greater the synergy shown by that particular mixture. The minimum inhibitory concentration (MIC) of a microbicide is the lowest concentration tested under a specific set of conditions that prevents the growth of added microorganisms.
(§2) Synergy tests were conducted using standard microtiter plate assays with media designed for optimal growth of the test microorganism. Minimal salt medium supplemented with 0.2% glucose and 0.1% yeast extract (M9GY medium) was used for testing bacteria; Potato Dextrose Broth (PDB medium) was used for testing yeast and mold. In this method, a wide range of combinations of microbicides and other personal care raw materials was tested by conducting high resolution MIC assays in the presence of various concentrations of BBIT or MBIT. High resolution MICs were determined by adding varying amounts of microbicide to one column of a microtitre plate and doing subsequent […] dilutions using an automated liquid handling system to obtain a series of endpoints ranging from 2 ppm to 10,000 ppm active ingredient.
(§3) The bacteria were used at a concentration of about 5 ×10^6 bacteria per mL and the yeast and mold at 5×10^5 fungi per mL. These microorganisms are representative of natural contaminants in many consumer and industrial applications. […] (yeast and mold) or 30° C. (bacteria).
(§4) In each test, First Component (A) was BBIT and the Second Component (B) was the other commercial microbicide.
(§5) In each test, First Component (A) was MBIT and the Second Component (B) was the other commercial microbicide.

[2] = test system: Candida albicans (C. albicans—ATCC 10231); assay: Synergy test, microtiter plate high resolution MIC assay, yeast in PDB medium; details: for MIC: Candida albicans, read-out: Qb (concentration of second component producing the end point, MIC)
Procedure: as §1, §2, §3, §4, §5

[3] = test system: Aspergillus niger (A. niger—ATCC 16404); assay: Synergy test, microtiter plate high resolution MIC assay, mold in PDB medium; details: for MIC: Aspergillus niger, read-out: Qb (concentration of second component producing the end point, MIC)
Procedure: as §1, §2, §3, §4, §5

[4] = C. albicans 10231, PDB, 24 hours
[5] = ATCC10231, C. albicans 10231, PDB, 24 hours, alone where Qa = 0, otherwise in the mixture
[6] = ATCC16404, 168 h, A. niger 16404, PDB, 7 days, alone where Qa = 0, otherwise in the mixture
[7] = E. coli 8739, M9GY, 24 hours, alone where Qa = 0, otherwise in the mixture
[8] = C. albicans 10231, PDB, 24 hours, alone where Qa = 0, otherwise in the mixture

CCCOC(=O)c1ccc(O)cc1 [Propylparaben]
SI (synergy index) ([1]; E. coli 8739, M9GY, 48 hours): 1.00 | SI ([1]; E. coli 8739 - M9GY, 24 hours, BBIT with Propylparaben): 1.00 | MIC ([1]; ATCC8739, E. coli 8739, M9GY, 48 hours, alone where Qa = 0, otherwise in the mixture): 4000 µg/mL | SI (synergy index) [2, 4]: 1.00 | SI ([2]; C. albicans 10231 - PDB, 24 hours, BBIT with Propylparaben): 1.00 | MIC [2, 5]: 2000 µg/mL | SI (synergy index) ([3]; A. niger 16404, PDB, 7 days): 1.00 | SI ([3]; A. niger 16404 - PDB, 7 days, BBIT with Propylparaben): 1.00 | MIC [3, 6]: 2000 µg/mL

Zinc pyrithione
Qb (concentration of Second Component B = Zinc pyrithione at the end point) [1]: 2 | SI (synergy index) [1]: 1.00 | Qb (concentration of Second Component B = Zinc pyrithione at the end point) [2]: 30 | SI (synergy index) [2]: 1.00 | Qb (concentration of Second Component B = Zinc pyrithione at the end point) [3]: 20 | SI (synergy index) [3]: 1.00

CC(C)(C)CC(C)(C)c1ccc(OCCOCC[N+](C)(C)Cc2ccccc2)cc1 [Benzethonium chloride]
Qb (Second Component B) ([1]; A=MBIT, B=Benzethonium chloride (Hyamine 1622), E. coli 8739 - M9GY, 24 hours): 20 | Qb (Second Component B) ([2]; A=MBIT, B=Benzethonium chloride (Hyamine 1622), C. albicans 10231 - PDB, 24 hours): 4 | Qb (Second Component B) ([3]; A=MBIT, B=Benzethonium chloride (Hyamine 1622), A. niger 16404 - PDB, 4 days): 10

O=C([O-])c1ccccc1.[Na+] [Sodium benzoate]
SI (synergy index) ([1]; E. coli 8739, M9GY, 24 hours): 1.00 | Qb (concentration of second component producing the end point, MIC) [1, 7]: 10000 ppm | SI ([1]; E. coli 8739 - M9GY, 24 hours, BBIT with Sodium benzoate): 1.00 | SI (synergy index) ([2]; C. albicans 10231, PDB, 48 hours): 1.00 | Qb (concentration of second component producing the end point, MIC) ([2]; C. albicans 10231, PDB, 48 hours, alone where Qa = 0, otherwise in the mixture): 2000 ppm | SI ([2]; C. albicans 10231 - PDB, 48 hours, BBIT with Sodium benzoate): 1.00 | SI (synergy index) ([3]; A. niger 16404, PDB, 7 days): 1.00 | Qb (concentration of second component producing the end point, MIC) ([3]; A. niger 16404, PDB, 7 days, alone where Qa = 0, otherwise in the mixture): 10000 ppm | SI ([3]; A. niger 16404 - PDB, 7 days, BBIT with Sodium benzoate): 1.00

CC(=O)C1C(=O)C=C(C)OC1=O (centres unmarked) [Dehydroacetic acid, sodium salt]
SI (synergy index) ([1]; E. coli 8739, M9GY, 24 hours): 1.00 | MIC ([1]; ATCC8739, E. coli 8739, M9GY, 24 hours, alone where Qa = 0, otherwise in the mixture): 20000 µg/mL | SI (synergy index) [2, 4]: 1.00 | MIC [2, 5]: 40 µg/mL | SI (synergy index) ([3]; A. niger 16404, PDB, 7 days): 1.00 | MIC [3, 6]: 200 µg/mL

ClC=CC[N+]12CN3CN(CN(C3)C1)C2.[Cl-] [Quaternium-15, 1-(3-chloroallyl)-3,5,7-triaza-1-azoniaadamantane chloride]
SI (synergy index) ([1]; E. coli 8739, M9GY, 24 hours): 1.00 | SI ([1]; E. coli 8739 - M9GY, 72 hours, BBIT with Quaternium-15): 1.00 | MIC ([1]; ATCC8739, 24 h): 50 µg/mL | SI (synergy index) [2, 4]: 1.00 | SI ([2]; C. albicans 10231 - PDB, 24 hours, BBIT with Quaternium-15): 1.00 | MIC ([2]; ATCC10231, 24 h): 500 µg/mL | SI (synergy index) ([3]; A. niger 16404, PDB, 3 days): 1.00 | SI ([3]; A. niger 16404 - PDB, 4 days, BBIT with Quaternium-15): 1.00 | MIC ([3]; ATCC16404, 72 h): 3000 µg/mL

CCCCC(CC)CN1CN(CC(CC)CCCC)CC(C)(N)C1 (centres unmarked) [Hexetidine]
SI (synergy index) ([1]; E. coli 8739, M9GY, 72 hours): 1.00 | SI ([1]; E. coli 8739 - M9GY, 72 hours, BBIT + hexetidine): 1.00 | Qb (Second Component B = Hexetidine) ([1]; E. coli 8739 - M9GY, 72 hours, hexetidine alone (Qa 0) or in mixture with BBIT): 200 | MIC ([1]; ATCC8739, E. coli 8739, M9GY, 72 hours, alone where Qa = 0, otherwise in the mixture): 80 µg/mL | SI (synergy index) ([2]; C. albicans 10231, PDB, 72 hours): 1.00 | SI ([2]; C. albicans 10231 - PDB, 72 hours, BBIT + hexetidine): 1.00 | Qb (Second Component B = Hexetidine) ([2]; C. albicans 10231 - PDB, 72 hours, hexetidine alone (Qa 0) or in mixture with BBIT): 100 | MIC ([2]; ATCC10231, C. albicans 10231, PDB, 72 hours, alone where Qa = 0, otherwise in the mixture): 80 µg/mL | SI (synergy index) ([3]; A. niger 16404, PDB, 3 days): 1.00 | SI ([3]; A. niger 16404 - PDB, 4 days, BBIT + hexetidine): 1.00 | Qb (Second Component B = Hexetidine) ([3]; A. niger 16404 - PDB, 4 days, hexetidine alone (Qa 0) or in mixture with BBIT): 100 | MIC ([3]; ATCC16404, 72 h, A. niger 16404, PDB, 3 days, alone where Qa = 0, otherwise in the mixture): 200 µg/mL

O=C(O)CN(CCN(CC(=O)O)CC(=O)O)CC(=O)O [EDTA, Ethylenediamine tetraacetic acid]
Qb (Second Component B = EDTA) [1]: 40000 | SI ([1]; E. coli 8739 - M9GY, 72 hours, BBIT + EDTA): 1.00 | Qb (Second Component B = EDTA) [2]: 600 | SI ([2]; C. albicans 10231 - PDB, 24 hours, BBIT + EDTA): 1.00 | Qb (Second Component B = EDTA) [3]: 1600 | SI ([3]; A. niger 16404 - PDB, 7 days, BBIT + EDTA): 1.00

linoleamidopropyl PG-dimonium chloride phosphate
SI (synergy index) ([1]; E. coli 8739, M9GY, 48 hours): 1.00 | Qb (concentration of second component producing the end point, MIC) ([1]; E. coli 8739, M9GY, 48 hours, alone where Qa = 0, otherwise in the mixture): 500 ppm | SI ([1]; E. coli 8739 - M9GY, 48 hours, BBIT with Phospholipid EFA): 1.00 | SI (synergy index) [2, 4]: 1.00 | Qb (concentration of second component producing the end point, MIC) [2, 8]: 1000 ppm | SI ([2]; C. albicans 10231 - PDB, 24 hours, BBIT with Phospholipid EFA): 1.00 | SI (synergy index) ([3]; A. niger 16404, PDB, 3 days): 1.00 | Qb (concentration of second component producing the end point, MIC) ([3]; A. niger 16404, PDB, 3 days, alone where Qa = 0, otherwise in the mixture): 2000 ppm | SI ([3]; A. niger 16404 - PDB, 4 days, BBIT with Phospholipid EFA): 1.00

N=C(N)c1ccc(OCCCCCCOc2ccc(C(=N)N)cc2)cc1.O=S(=O)(O)CCO.O=S(=O)(O)CCO [Hexamidine diisethionate]
SI (synergy index) ([1]; E. coli 8739, M9GY, 24 hours): 1.00 | Qb (concentration of second component producing the end point, MIC) [1, 7]: 8 ppm | SI ([1]; E. coli 8739 - M9GY, 48 hours, BBIT + hexamidine diisethionate): 1.00 | Qb (Second Component B = Hexamidine diisethionate) ([1]; E. coli 8739 - M9GY, 48 hours, hexamidine diisethionate alone (Qa 0) or in mixture with BBIT): 100 | SI (synergy index) [2, 4]: 1.00 | Qb (concentration of second component producing the end point, MIC) [2, 8]: 10 ppm | SI ([2]; C. albicans 10231 - PDB, 24 hours, BBIT + hexamidine diisethionate): 1.00 | Qb (Second Component B = Hexamidine diisethionate) ([2]; C. albicans 10231 - PDB, 24 hours, hexamidine diisethionate alone (Qa 0) or in mixture with BBIT): 10
